Results from US8383619B2, “Pharmaceutical compounds” (Astex Therapeutics Limited, priority 2008, dated 2013).

Legend:
Assay in all cases: Anti-proliferative assay (Oncodesign)
Assay type in all cases: cell-based
LB996-RCC = LB996-RCC (KIDNEY); read-out: IC50 (Concentration of test compound)
Protocol: (§1) The anti-proliferative activities of the parent compounds of the pro-drugs of the invention may be determined by measuring the ability of the compounds to inhibition of cell growth in a number of cell lines such as the human colon cancer cell line HCT116. Inhibition of cell growth is measured using the Alamar Blue assay (Nociari, M. M, Shalev, A., Benias, P., Russo, C. Journal of Immunological Methods 1998, 213, 157-167). The method is based on the ability of viable cells to reduce resazurin to its fluorescent product resorufin. For each proliferation assay cells are plated onto 96 well plates and allowed to recover for 16 hours prior to the addition of inhibitor compounds for a further 72 hours. At the end of the incubation period 10% (v/v) Alamar Blue is added and incubated for a further 6 hours prior to determination of fluorescent product at […]. In the case of the non-proliferating cell assay cells are maintained at confluence for 96 hour prior to the addition of inhibitor compounds for a further 72 hours. The number of viable cells is determined by Alamar Blue assay as before. Cell lines may be obtained from the ECACC (European Collection of cell Cultures).
(§2) The parent compound of the pro-drugs of Examples 1 to 25 i.e. (2,4-dihydroxy-5-isopropyl-phenyl)-[5-(4-methyl-piperazin-1-ylmethyl)-1,3-dihydro-isoindol-2-yl]-methanone, in the form of its L-lactate salt, was tested in anti-proliferative assays against one hundred cell lines by Oncodesign (Dijon, France). The IC50 values against each cell line are set out in the table below and the figures in the table refer to nanomolar concentrations. The compounds were tested up to a concentration of 10,000 nanomolar.

IGROV-1 = details: Homo sapiens; IGROV-1 (OVARY); read-out: IC50 (Concentration of test compound)
Protocol: as §1, §2

U-937 = details: Homo sapiens; U-937 (BLOOD); read-out: IC50 (Concentration of test compound)
Protocol: as §1, §2

FTC-238 = FTC-238 (THYROID); read-out: IC50 (Concentration of test compound)
Protocol: as §1, §2

HCT 116 = details: Homo sapiens; HCT 116 (COLON); read-out: IC50 (Concentration of test compound)
Protocol: as §1, §2

BB74-MEL = BB74-MEL (SKIN); read-out: IC50 (Concentration of test compound)
Protocol: as §1, §2

K-562 = details: Homo sapiens, K562; K-562 (BLOOD); read-out: IC50 (Concentration of test compound)
Protocol: as §1, §2

AGS = details: Homo sapiens; AGS (STOMACH); read-out: IC50 (Concentration of test compound)
Protocol: as §1, §2

SK-MES-1 = details: Homo sapiens; SK-MES-1 (LUNG); read-out: IC50 (Concentration of test compound)
Protocol: as §1, §2

LB61-NSCLC = LB61-NSCLC (LUNG); read-out: IC50 (Concentration of test compound)
Protocol: as §1, §2

LB12-SCLC/OC2 = LB12-SCLC/OC2 (LUNG); read-out: IC50 (Concentration of test compound)
Protocol: as §1, §2

LS 174T = details: Homo sapiens, LS174T; LS 174T (COLON); read-out: IC50 (Concentration of test compound)
Protocol: as §1, §2

BB65-RCC = BB65-RCC (KIDNEY); read-out: IC50 (Concentration of test compound)
Protocol: as §1, §2

K-562/Gleevec = details: Homo sapiens, K562; K-562/Gleevec (BLOOD); read-out: IC50 (Concentration of test compound)
Protocol: as §1, §2

CMEL-5 = CMEL-5 (SKIN); read-out: IC50 (Concentration of test compound)
Protocol: as §1, §2

KCL-22 = details: Homo sapiens; KCL-22 (BLOOD); read-out: IC50 (Concentration of test compound)
Protocol: as §1, §2

NAMALWA = NAMALWA (BLOOD); read-out: IC50 (Concentration of test compound)
Protocol: as §1, §2

KB3 = KB3 (HEAD AND NECK); read-out: IC50 (Concentration of test compound)
Protocol: as §1, §2

CAMA-1 = details: Homo sapiens; CAMA-1 (BREAST); read-out: IC50 (Concentration of test compound)
Protocol: as §1, §2

A-375 = details: Homo sapiens; A-375 (SKIN); read-out: IC50 (Concentration of test compound)
Protocol: as §1, §2

CGL-9 = CGL-9 (BRAIN); read-out: IC50 (Concentration of test compound)
Protocol: as §1, §2

LB831-BLC = LB831-BLC (URINARY BLADDER); read-out: IC50 (Concentration of test compound)
Protocol: as §1, §2

FaDu = details: Homo sapiens; FaDu (HEAD AND NECK); read-out: IC50 (Concentration of test compound)
Protocol: as §1, §2

SK-MEL-2 = details: Homo sapiens; SK-MEL-2 (SKIN); read-out: IC50 (Concentration of test compound)
Protocol: as §1, §2

A-427 = details: Homo sapiens; A-427 (LUNG); read-out: IC50 (Concentration of test compound)
Protocol: as §1, §2

LB771-HNSCC = LB771-HNSCC (HEAD AND NECK); read-out: IC50 (Concentration of test compound)
Protocol: as §1, §2

For `CC(C)c1cc(C(=O)N2Cc3ccc(CN4CCN(C)CC4)cc3C2)c(O)cc1O` [(2,4-dihydroxy-5-isopropyl-phenyl)-[5-(4-methyl-piperazin-1-ylmethyl)-1,3-dihydro-isoindol-2-yl]-methanone], the IC50 (LB996-RCC) was 158 nM, the IC50 (IGROV-1) was 109 nM and the IC50 (U-937) was 104 nM. It also gave an IC50 (FTC-238) of 26 nM, an IC50 (HCT 116) of 38 nM and an IC50 (BB74-MEL) of 162 nM. The IC50 (K-562) was 147 nM, the IC50 (AGS) was 66 nM and the IC50 (SK-MES-1) was 270 nM. The IC50 (LB61-NSCLC) was > 10000 nM, the IC50 (LB12-SCLC/OC2) was 52 nM and the IC50 (LS 174T) was 159 nM. The IC50 (BB65-RCC) was 1250 nM, the IC50 (K-562/Gleevec) was 175 nM and the IC50 (CMEL-5) was 130 nM. The IC50 (KCL-22) was 24 nM, the IC50 (NAMALWA) was 93 nM and the IC50 (KB3) was 48 nM. It also gave an IC50 (CAMA-1) of 22 nM, an IC50 (A-375) of 1480 nM and an IC50 (CGL-9) of 161 nM. It also gave an IC50 (LB831-BLC) of 149 nM, an IC50 (FaDu) of 29 nM and an IC50 (SK-MEL-2) of 138 nM. The IC50 (A-427) was 130 nM and the IC50 (LB771-HNSCC) was 391 nM.
